Measured values taken from publication PMC8910432 (International Journal of Molecular Sciences, 2022).

Experiments:
[1] = biological target: RBD (N501Y) spike protein and human ACE2 (Severe acute respiratory syndrome coronavirus 2, UniProt P0DTC2, N501Y); format: binding, SARS-CoV-2; human; conditions: for inhibitory effect on interaction between RBD (N501Y) spike protein and human ACE2: 10 µM
[2] = biological target: RBD (N501Y) (Severe acute respiratory syndrome coronavirus 2, UniProt P0DTC2, N501Y); format: binding, SARS-CoV-2

Compound | concentration from which inhibition is significant [1] [µM] | inhibitory effect on interaction between RBD (N501Y) spike protein and human ACE2 [1] | reduction of the binding between RBD (N501Y) spike protein and ACE2 [1] | TA adsorption onto RBD (QCMD) [2]
O=C(O[C@@H]1O[C@@H]2COC(=O)c3cc(O)c(O)c(O)c3-c3c(cc(O)c(O)c3O)C(=O)O[C@H]([C@H]1O)[C@@H]2O)c1cc(O)c(O)c(O)c1 [corilagin, β-1-O-galloyl-3,6-(R)-hexahydroxydiphenoyl-D-glucose] | ≥ 0.1 | up to 50% |  | 
cyanidin-3-O-glucoside |  | only TA, TGG, and corilagin show a significant inhibitory effect |  | 
O=C(OC[C@H]1O[C@@H](OC(=O)c2cc(O)c(O)c(O)c2)[C@H](O)[C@@H](OC(=O)c2cc(O)c(O)c(O)c2)[C@@H]1O)c1cc(O)c(O)c(O)c1 [TGG, 1,3,6-tri-O-galloyl-β-D-glucose] | ≥ 0.1 | up to 50% |  | 
COc1cc(-c2[o+]c3cc(O)cc(O)c3cc2O[C@@H]2O[C@H](CO)[C@@H](O)[C@H](O)[C@H]2O)cc(OC)c1O [malvidin-3-O-glucoside] |  | only TA, TGG, and corilagin show a significant inhibitory effect |  | 
OC[C@H]1O[C@@H](Oc2cc3c(O)cc(O)cc3[o+]c2-c2ccc(O)cc2)[C@H](O)[C@@H](O)[C@@H]1O [pelargonidin-3-O-glucoside] |  | only TA, TGG, and corilagin show a significant inhibitory effect |  | 
O=C(OC[C@H]1OC(OC(=O)c2cc(O)c(O)c(OC(=O)c3cc(O)c(O)c(O)c3)c2)[C@H](OC(=O)c2cc(O)c(O)c(OC(=O)c3cc(O)c(O)c(O)c3)c2)[C@@H](OC(=O)c2cc(O)c(O)c(OC(=O)c3cc(O)c(O)c(O)c3)c2)[C@@H]1OC(=O)c1cc(O)c(O)c(OC(=O)c2cc(O)c(O)c(O)c2)c1)c1cc(O)c(O)c(OC(=O)c2cc(O)c(O)c(O)c2)c1 (stereo partly drawn) [TA, 1,2,3,4,6-penta-O-{3,4-dihydroxy-5-((3,4,5-trihydroxybenzoyl)oxy)benzoyl}-D-glucopyranose] | ≥ 0.1 | up to 50% | up to 95% | amount of TA adsorbed increases with TA concentration
